Laboratory results: ChEMBL document CHEMBL1201862, “PubChem BioAssay data set” (2004)
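How tested: cells in 96-well plates exposed to compound for 48 hours at five concentrations. GI50 marks 50% less growth.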 Activity calls are given as the source filed them. Rule as the data show it: active = GI50 up to about 1.1 µM and inactive = higher.

Tests used:
Assay in all cases: NCI-60 cell line screen, 48 h
ACHN = system: ACHN
CCRF-CEM = system: CCRF-CEM
COLO 205 = system: COLO 205
EKVX = system: EKVX
HT-29 = system: HT-29
M14 = system: M14
MOLT-4 = system: MOLT-4
NCI-H226 = system: NCI-H226
NCI-H522 = system: NCI-H522
OVCAR-8 = system: OVCAR-8
SK-MEL-2 = system: SK-MEL-2
SN12C = system: SN12C
SR = system: SR
TK-10 = system: TK-10
UACC-257 = system: UACC-257
A498 = system: A498
NCI-H460 = system: NCI-H460

Measured: GI50

CCOC(=O)/C(Br)=C1/OC(=O)c2ccccc2-c2ccccc21.CCOC(=O)/C(Br)=C1\OC(=O)c2ccccc2-c2ccccc21
inactive: ACHN 15.7 µM | CCRF-CEM 10.9 µM | COLO 205 15.2 µM | EKVX 31.7 µM | HT-29 11.3 µM | M14 17 µM | MOLT-4 14.7 µM | NCI-H226 27.3 µM | NCI-H522 15.8 µM | OVCAR-8 23.1 µM | SK-MEL-2 18.5 µM | SN12C 22.8 µM | SR 16 µM | TK-10 21.6 µM | UACC-257 18.2 µM

CN(C)C(=O)OC(Cn1cncn1)c1ccc(Cl)cc1Cl (centres undefined)
inactive: A498 > 100 µM | ACHN > 100 µM | COLO 205 > 100 µM | EKVX > 100 µM | HT-29 > 100 µM | M14 > 100 µM | MOLT-4 > 100 µM | NCI-H226 > 100 µM | NCI-H460 > 100 µM | NCI-H522 53.5 µM | OVCAR-8 > 100 µM | SK-MEL-2 > 100 µM | SN12C > 100 µM | TK-10 > 100 µM | UACC-257 > 100 µM

COc1ccc(/C=C2\CN(C)Cc3c2nc(N)nc3-c2ccc(OC)cc2)cc1
inactive: A498 > 100 µM | ACHN > 100 µM | CCRF-CEM 41.5 µM | COLO 205 95.7 µM | EKVX 33.6 µM | M14 69.3 µM | MOLT-4 30.1 µM | NCI-H226 > 100 µM | NCI-H460 > 100 µM | NCI-H522 41.3 µM | OVCAR-8 49.3 µM | SK-MEL-2 83.4 µM | SN12C > 100 µM | TK-10 > 100 µM

CCCCCCCCCCCCCC(=S)N/C=C/OC
inactive: A498 23.2 µM | ACHN 27.5 µM | CCRF-CEM 21.4 µM | COLO 205 27.1 µM | EKVX 31 µM | HT-29 21.3 µM | M14 35.3 µM | NCI-H226 43.8 µM | NCI-H460 29.3 µM | NCI-H522 20.3 µM | OVCAR-8 38 µM | SK-MEL-2 32 µM | SN12C 34.9 µM | TK-10 > 100 µM | UACC-257 24.5 µM

NC1N=Nc2ccccc21 (centres undefined)
inactive: ACHN > 100 µM | CCRF-CEM > 100 µM | COLO 205 > 100 µM | EKVX > 100 µM | HT-29 > 100 µM | M14 > 100 µM | MOLT-4 > 100 µM | NCI-H226 > 100 µM | NCI-H460 > 100 µM | NCI-H522 > 100 µM | OVCAR-8 > 100 µM | SK-MEL-2 > 100 µM | SN12C > 100 µM | SR > 100 µM | TK-10 > 100 µM | UACC-257 > 100 µM

COC1OC(C)C(OC(=O)C(C)(C)C)C(OS(=O)(=O)c2ccc(C)cc2)C1OS(=O)(=O)c1ccc(C)cc1 (centres undefined)
inactive: ACHN > 100 µM | CCRF-CEM > 100 µM | COLO 205 > 100 µM | HT-29 > 100 µM | M14 > 100 µM | MOLT-4 > 100 µM | NCI-H226 > 100 µM | NCI-H460 > 100 µM | NCI-H522 > 100 µM | OVCAR-8 > 100 µM | SK-MEL-2 > 100 µM | SN12C > 100 µM | SR 15.4 µM | UACC-257 > 100 µM

COc1cccc(C2=NC(C(C)C)CO2)c1 (centres undefined)
inactive: A498 > 100 µM | ACHN > 100 µM | CCRF-CEM > 100 µM | COLO 205 > 100 µM | EKVX > 100 µM | HT-29 > 100 µM | M14 > 100 µM | MOLT-4 > 100 µM | NCI-H226 > 100 µM | NCI-H460 > 100 µM | NCI-H522 > 100 µM | OVCAR-8 > 100 µM | SK-MEL-2 > 100 µM | SN12C > 100 µM | TK-10 > 100 µM | UACC-257 > 100 µM

COc1ccc2c(c1OC)C(=O)C2
inactive: ACHN > 100 µM | CCRF-CEM > 100 µM | COLO 205 > 100 µM | EKVX > 100 µM | HT-29 > 100 µM | M14 > 100 µM | MOLT-4 > 100 µM | NCI-H226 > 100 µM | NCI-H460 > 100 µM | NCI-H522 > 100 µM | OVCAR-8 > 100 µM | SK-MEL-2 > 100 µM | SN12C > 100 µM | SR > 100 µM | TK-10 > 100 µM | UACC-257 > 100 µM

COC1(C)CC2N(C(=O)c3ccccc3)N=C(c3ccccc3)CC2(C)O1 (centres undefined)
inactive: A498 > 100 µM | ACHN > 100 µM | CCRF-CEM 84.5 µM | HT-29 > 100 µM | M14 > 100 µM | MOLT-4 61.7 µM | NCI-H226 > 100 µM | NCI-H460 69.5 µM | NCI-H522 > 100 µM | OVCAR-8 > 100 µM | SK-MEL-2 > 100 µM | SN12C > 100 µM | UACC-257 > 100 µM

CC(=O)OC1COC(N2C(=O)C(=O)c3c(C)cc(Cl)nc32)C(OC(C)=O)C1OC(C)=O (centres undefined)
inactive: A498 > 100 µM | ACHN > 100 µM | CCRF-CEM > 100 µM | COLO 205 > 100 µM | EKVX > 100 µM | HT-29 > 100 µM | M14 > 100 µM | MOLT-4 > 100 µM | NCI-H226 > 100 µM | NCI-H460 > 100 µM | OVCAR-8 > 100 µM | SK-MEL-2 > 100 µM | SN12C > 100 µM | SR 83.6 µM | TK-10 > 100 µM | UACC-257 > 100 µM

C[Si](C)(C)c1ccc(CC2(Cc3ccc([Si](C)(C)C)cc3)CCNC2)cc1
inactive: A498 1.55 µM | ACHN 3.18 µM | CCRF-CEM 4.67 µM | COLO 205 1.8 µM | EKVX 6.75 µM | HT-29 2.04 µM | M14 1.76 µM | NCI-H226 1.88 µM | NCI-H460 2.04 µM | NCI-H522 1.78 µM | OVCAR-8 1.85 µM | SK-MEL-2 1.76 µM | SN12C 1.71 µM | TK-10 21 µM | UACC-257 2.44 µM

NC(=O)N1N=C2c3ccccc3CC[C@@H]2C1c1ccccc1 (some centres undefined)
inactive: A498 > 100 µM | ACHN > 100 µM | CCRF-CEM > 100 µM | COLO 205 > 100 µM | EKVX > 100 µM | HT-29 > 100 µM | M14 > 100 µM | MOLT-4 69 µM | NCI-H226 > 100 µM | NCI-H460 > 100 µM | NCI-H522 61 µM | OVCAR-8 > 100 µM | SK-MEL-2 > 100 µM | SN12C > 100 µM | TK-10 > 100 µM | UACC-257 > 100 µM

CCCC1(CC(=O)O)OCCc2c1[nH]c1ccccc21 (centres undefined) [PRODOLIC ACID]
inactive: A498 > 100 µM | ACHN > 100 µM | CCRF-CEM > 100 µM | COLO 205 > 100 µM | EKVX > 100 µM | M14 > 100 µM | MOLT-4 > 100 µM | NCI-H226 > 100 µM | OVCAR-8 > 100 µM | SK-MEL-2 > 100 µM | SN12C > 100 µM | TK-10 > 100 µM | UACC-257 > 100 µM
